We go through 2 molecules from patent US12441709B2, “Therapeutic compounds” (INDIVIOR UK LIMITED, priority 2016, dated 2025).

For the test, the target named is T1, human OX2 receptor (Homo sapiens, UniProt O43614).
T1 construct: expressed in transfected cells; host or cells: CHO cell line (membranes)
T1 sequence (O43614 1-444): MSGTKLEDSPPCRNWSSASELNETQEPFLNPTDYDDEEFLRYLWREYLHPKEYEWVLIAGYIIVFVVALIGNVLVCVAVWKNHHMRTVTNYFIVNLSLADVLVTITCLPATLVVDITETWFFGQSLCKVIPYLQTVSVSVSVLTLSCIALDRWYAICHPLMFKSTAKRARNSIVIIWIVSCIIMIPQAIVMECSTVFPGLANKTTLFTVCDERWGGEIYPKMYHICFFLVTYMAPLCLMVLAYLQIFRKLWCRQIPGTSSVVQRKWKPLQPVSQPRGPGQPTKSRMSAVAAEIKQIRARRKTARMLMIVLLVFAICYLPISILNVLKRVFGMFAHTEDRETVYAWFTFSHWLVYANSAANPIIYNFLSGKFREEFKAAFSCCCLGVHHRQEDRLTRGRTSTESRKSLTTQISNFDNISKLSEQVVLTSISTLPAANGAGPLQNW
The test can be described thus: Orexin 2 receptor radioligand binding assay ([3H]-EMPA competition). The settings on record: CHO membranes, 2 nM [3H]-EMPA, 60 min room temperature; read-out: hOX2 pKi (converted). Here is the method: Orexin 2 Receptor Radioligand Binding Assay:
Cell membranes were prepared from the human Ox2 receptor expressing CHO cell line. The harvested cell pellets were homogenized in ice-cold buffer (15 mM TrisHCl (pH 7.4), 2 mM MgCl2, 0.3 mM EDTA, 1 mM EGTA, Sigma FAST™ protease inhibitor cocktail) and centrifuged at 45,000 rpm for 30 min at 4° C. After discarding the supernatants the pellets were re-suspended in the before mentioned buffer followed by homogenization and another centrifugation. Obtained pellets were re-suspended in ice cold buffer containing 75 mM TrisHCl (pH 7.5), 12.5 mM MgCl2, 0.3 mM EDTA, 1 mM EGTA, 250 mM sucrose and a Sigma FAST TM protease inhibitor cocktail. After protein quantification with the Pierce Protein Assay Kit, using BSA as standard, the membrane homogenates were aliquoted and frozen down at […] until further use.
Expression levels of the Ox2 receptor (Bmax) were determined by saturation binding and the Kd of the radioligand [^3H]EMPA was determined by association and dissociation kinetics. Data were elaborated with Graph Pad Prism using radioligand binding analysis. Steady state binding was reached after 60 min of incubation at room temperature. […]

For `Cc1ccc(-n2nccn2)c(C(=O)N(C)[C@@H](C)CNc2ncc(C(F)(F)F)cn2)n1` [Example 2, N,6-dimethyl-3-(2H-1,2,3-triazol-2-yl)-N-[(2S)-1-{[5-(trifluoromethyl)pyrimidin-2-yl]amino}propan-2-yl]pyridine-2-carboxamide], the Ki was 794 nM. For `Cc1ccc(-n2nccn2)c(C(=O)N(C)[C@@H](C)CNc2cnc(C(F)(F)F)cn2)n1` [Example 1, N,6-dimethyl-3-(2H-1,2,3-triazol-2-yl)-N-[(2S)-1-{[5-(trifluoromethyl)pyrazin-2-yl]amino}propan-2-yl]pyridine-2-carboxamide], the Ki is 251 nM.
